# Laboratory results reported in patent publication US20240108740A1, “THERAPEUTIC COMPOSITIONS INCLUDING SPN10 AND USES THEREOF” (Stealth BioTherapeutics Inc., priority 2022, published 2024).
# Residues, ends and D or L forms follow the SMILES beside them.
# Columns and labels:
# Caco-2 cells = experiment: Example 12: 3NP-induced mitochondrial depolarization (TMRM, CLSM); format: cell-based, human; settings: 3NP 10 mM, 4 hours
# Procedure: Caco-2 cells will be treated with 3NP (10 mM) alone or in the presence of peptide conjugates (0.1 μM); aromatic-cationic peptides (an equivalent molar dose of aromatic-cationic peptide based on the concentration of the aromatic-cationic peptide administered in the peptide conjugate treatment group); SPN10(s) (an equivalent molar dose of SPN10 based on the concentration of SPN10 administered in the peptide conjugate treatment group); or SPN10(s) in combination with aromatic-cationic peptides (e.g., an equivalent molar dose of SPN10 based on the concentration of SPN10 administered in the peptide conjugate treatment group and an equivalent molar dose of aromatic-cationic peptide based on the concentration of aromatic-cationic peptide administered in the peptide conjugate treatment group) for 4 hours, and then incubated with TMRM and examined by CLSM. It is expected that 3NP-treated cells will display reduced fluorescence compared to control cells, which indicates mitochondrial depolarization.
# Hairless mice = experiment: Example 50: sunburn by excessive UV radiation; format: in vivo, mouse; settings: intravenously twice per day for seven days
# Description: Hairless mice, with skin characteristics similar to humans, will be exposed to excessive UV radiation over the course of a week. […] Parameters measured will include wound contraction, re-epithelialization distance, cellularity, and collagen organization. Ki67 proliferation antigen will be assessed, as well as TUNEL and caspase-3 activation. Blood flow will be measured by […] mapping.
# [1] = system: acute myocardial infarction; experiment: Infarct size at revascularization in acute myocardial infarction patients; format: in vivo, human; settings: IV at the time of reperfusion
# Description: Men and women, 18 years of age or older, who present after the onset of chest pain, and for whom the clinical decision is made to treat with a revascularization procedure (e.g., PCI or thrombolytics) will be eligible for enrollment. […] The diagnosis is made therefore purely on the basis of symptoms, clinical examination and ECG changes. […] The patient often has a history of having experienced angina, but the ECG at the time of the suspected attack may show no abnormality at all. […] Left ventricular and coronary angiography will be performed with the use of standard techniques, just before revascularization. Revascularization will be performed by PCI with the use of direct stenting. […] The primary end point is the size of the infarct as assessed by measurements of cardiac biomarkers. […] Coronary biomarkers will be measured in each patient. For example, the area under the curve (AUC) (expressed in arbitrary units) for creatine kinase and troponin I release (Beckman kit) may be measured in each patient by computerized planimetry. The principal secondary end point is the size of the infarct as measured by the area of delayed hyperenhancement that is seen on cardiac magnetic resonance imaging (MRI), assessed on day 5 after infarction. […] The images are analyzed in short axis slices covering the entire left ventricle. […]
# isolated mitochondria = experiment: Example 13: mitochondrial swelling (A540) and cytochrome c release (ELISA)
# Description: MPT pore opening results in mitochondrial swelling. […] Mitochondrial suspensions will be centrifuged and the amount of cytochrome c in the pellet and supernatant will be determined using a commercially available ELISA kit.
smiles,measurement,setting,value
"N=C(N)NCCC[C@H](NC(=O)[C@@H](N)Cc1c[nH]c2ccccc12)C(=O)N[C@@H](Cc1c[nH]c2ccccc12)C(=O)N[C@@H](CCCCN)C(N)=O [SPN10, H-L-Trp-L-Arg-L-Trp-L-Lys-NH2] (H-WRWK-NH2)",mitochondrial depolarization caused by 3NP,Caco-2 cells,protect against mitochondrial depolarization
same,wound healing and progression of sunburn injuries,Hairless mice,accelerate wound healing and attenuate the progression of sunburn injuries
same,infarct size versus placebo,[1],smaller infarct
same,mitochondrial swelling induced by MPP^+,isolated mitochondria,prevent mitochondrial swelling
same,swelling and cytochrome c release induced by Ca^2+ overload,isolated mitochondria; pre-treatment,inhibit swelling and cytochrome c release
